The source of these data is patent US7785566B2, “Pharmaceutical compounds” (GE Healthcare, Inc., priority 2003, dated 2010).

This data set relates to ventricular extrasystoles after LAD artery occlusion. Description: Antiarrythmic effect in a post myocardial infarction (MI) pig model (LAD ligation). The data set is classed as in vivo. From the text:
The pharmaceutical cPn216-[…]OH (X) was examined according to the following procedure:
A pig was anaestetised and put on artificial overpressure ventilation. Access to the heart was obtained by a midline sternotomy and removal of the anterior pericardium. The LAD artery was occluded by ligation above the 2nd branch and one of the collaterals was occluded as well. This caused development of frequent ventricular extrasystoles, known to proceed into ventricular tachycardia and fibrillation within minutes from previous experiments with the same type of preparation. […] An initial rise in mean blood pressure was noticed. Ventricular extrasystoles reappeared gradually after about 15 minutes and a new injection of 0.5 mg of the compound of formula (X) was given. […] The pig was then given a lethal dose of potassium chloride to terminate the experiment.
A similar set of observations was made in a second pig experiment.

Setting [1] is: pig, hour following second 0.5 mg injection.

Structures are written as SMILES.

Take `CCC(C)[C@H](NC(=O)[C@@H]1CCCN1C(=O)[C@H](Cc1cnc[nH]1)NC(=O)[C@@H](NC(=O)[C@H](Cc1ccc(O)cc1)NC(=O)[C@@H](NC(=O)[C@H](CCCNC(=N)N)NC(=O)CNCCC(CCNC(C)(C)/C(C)=N\O)CCNC(C)(C)/C(C)=N\O)C(C)C)C(C)CC)C(=O)O` (some centres unmarked) [(X)]: where the note is “pig, ECG recordings before and after the first injection”, the “Duration of QRS complexes (ECG before and after first injection)” value was “shortening”. Further, the “Heart rhythm after first intravenous injection” value (pig, LAD occluded, frequent ventricular extrasystoles, i.v. 0,5 mg, within few minutes) is recorded as “Complete stabilisation of the condition with return to sinus rhythm”. Besides, the “Time until ventricular extrasystoles reappeared” value (pig, after first i.v. injection of 0,5 mg) is on record as “about 15 minutes”. Moreover, under setting [1], the “Blood pressure during the following hour” value is “slightly reduced but adequate constant” and the “Heart rhythm during the following hour” value is recorded as “stable sinus rhythm”. In addition, the “Mean blood pressure after first injection” value (pig, i.v. 0,5 mg, first injection) was “initial rise”. The “Heart rhythm after second injection” value (pig, new injection of 0.5 mg after reappearance of extrasystoles) was “stabilised with regular sinus rhythm”. For the same molecule, the “Overall anti-arrythmic activity in this preparation” value (post-MI pig preparation) is “act as an anti-arrythmic drug”.
